One data set concerns HCT116. Nature of the data set: In Vitro cytotoxicity measured by the cell colony formation assay. Format: cell-based, human. The conditions noted are these: Homo sapiens, HCT-116; read-out: IN VITRO ID 50 HCT116. In short, it runs like this: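 Four hundred cells per dish in McCoy's 5a medium with 10% FBS were allowed to attach for 5 h at 37 °C. They were then exposed to compound for 72 h at 37 °C, added as a 10× stock made fresh in medium. After HBSS rinsing and refeeding, colonies were counted after 7 days.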

Data set [1] concerns MX-1 human breast carcinoma. Format: in vivo. The conditions noted are these: for complete tumor regressions: six mice per group (0611: five evaluable), ended Day 63; for Toxic Deaths / Complete Response / Partial Response / Stable Disease: number of mice, mg/kg: 0499 80, 0550 73, 0611 113, 0748 200, 6 mice/group; for Complete Response / Partial Response / Stable Disease: Day 63; for % Reduction (Weight): po, 432 h. As for the experimental part:
(§1) Antitumor compounds were administered orally in a study to investigate whether such a formulation is efficacious against the MX-1 human breast carcinoma xenograft. Antitumor compound 0499 was formulated as Solution 1 in Example 6. Antitumor compound 0550 was formulated as Solution 2 in Example 6. Antitumor compound 0611 was formulated as Solution 3 in Example 6. Antitumor compound 0748 was formulated as Solution 4 in Example 6. Other antitumor compounds were formulated similarly. The compounds were prepared in a vehicle of 90% saline, 5% Cremophor, and 5% ethanol.
(§2) Female nu/nu mice (11-12 weeks of age; implanted subcutaneously with 1 mm^3 MX-1 human breast carcinoma fragments in the flank) were sorted into one control group (n=10) and four treatment (n=6) groups (group mean tumor size of 47-49 mg). The study was terminated on Day 63.

The test system of a further data set is blood cell populations. Description: Effect of oral treatment on blood cell populations and body weight in the MX-1 study (Example 22). Format: in vivo, nu/nu mice. Further details: neutrophil reduction: concentration or dose not given beside the values. Conditions: for % Reduction (Monocytes) / % Reduction (Neutrophils): Day 4, vs vehicle; for % Reduction (Monocytes) / % Reduction (Neutrophils) / Monocytes (K/µL) / Neutrophils (K/µL) / Maximum Weight Loss (Day): mg/kg: 0499 80, 0550 73, 0611 113, 0748 200; for Monocytes (K/µL) / Neutrophils (K/µL): Day 4; for Monocytes (K/µL) / Neutrophils (K/µL) / Maximum Weight Loss (Day): single oral bolus Day 1; for Maximum Weight Loss (Day): body weight, day of maximum in parentheses in the cell. As for the experimental part:
as §1, §2
In addition to survival and tumor regression responses, the effect of treatment on blood cell populations was assessed. The major effect of these antitumor compounds on blood cell populations was a marked reduction in the neutrophil cell number. As well, monocyte depletion correlated fairly well with neutrophil reduction for each antitumor compound. […] There was a correlation between antitumor activity and reduced neutrophil count. In general, toxicity (as determined by neutrophil depletion) and weight loss correlated with efficacy. […] Importantly, the toxicities observed with the very efficacious antitumor compounds were manageable and reversible; neutrophil count and body weight rebounded from their low points in just a few days. Table 20 summarizes the weight reduction, neutrophil and monocyte measurements on Day 4, with tumor weight reduction calculated at Day 18: Table 20

A further data set relates to HCT116 carcinoma. Conditions: number of 5 mice; i.v. qd x 1 at MTD, Day 60; mg/kg: Taxol 36 (split doses), 0503 72.6, 0536 49, 0663 159, 0670 123, 0687 159, 0706 108, 0908 159, 0947 76.9, 0951 72.6, 0983 72.6, 0999 49, 1003 49, 1011 108. In short, it runs like this: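 Mice bearing HCT116 tumours received a single i.v. maximum tolerated dose per compound, formulated in 5% ethanol, 5% Cremophor, 90% isotonic saline. Study ended on Day 60; complete response meant no palpable tumour at study end.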

The next data set deals with MX-1 carcinoma. Conditions: number of 6 mice; i.v. qd x 1 at MTD, Day 60; mg/kg: Taxol 36 (split dose), 0503 72.6, 0536 49, 0663 159, 0670 123, 0687 159, 0706 108, 0908 159, 0947 76.9, 0951 72.6, 0983 67.4, 0999 49, 1003 49, 1011 108. In short, it runs like this: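 Mice dosed with a single i.v. bolus (qd x 1) at each compound's MTD, formulated in 5% ethanol, 5% Cremophor, 90% isotonic saline. Study ended Day 60; complete response = tumor not palpable at study end.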

Another data set concerns A2780 ovarian carcinoma. Conditions: number of mice; i.v. qd x 1 at estimated MTD (Taxol 24 mg/kg, Taxotere 70 mg/kg, 0983 72.6 mg/kg); 5 mice/group (Taxotere 6). The method, then: Dosing was initiated on Day 1. […] Taxotere was given i.v. on a qd x 1 schedule at a dose of 70 mg/kg. […] The study was terminated on Day 60. Treatment groups are detailed in Table 7.
The test system of another data set is SKMES lung carcinoma. Nature of the data set: In vivo evaluation of oral administration against SKMES human lung carcinoma xenograft (Example 21). Conditions: number of mice, single oral bolus Day 1, mg/kg: Taxol 40, 0687 228, 0503 73, 6 mice/group. The method, then: Female Nu/Nu mice (6-8 weeks of age; implanted with 1 mm^3 SKMES lung carcinoma fragments in the flank) were sorted into treatment groups of six mice each. […] Treatments were administered as a single oral bolus on Day 1, and the study was terminated on Day 60.
A complete response is obtained if the tumor is not palpable at the end of the study.
The total response rate is defined as the percentage of evaluable animals (excluding deaths due to procedure or toxicity) in a group that experience complete or partial responses at the termination of the study.

Marks after values point to notes of the source that are not given here. Where only a bound is given, the exact number is not on record here.

With `CCC(=O)O[C@H]1C(=O)[C@@]2(C)[C@H]([C@H](OC(=O)c3ccccc3)[C@]3(O)C[C@H](OC(=O)[C@H](O)[C@@H](NC(=O)OC(C)(C)C)c4cccs4)C(C)=C1C3(C)C)[C@]1(OC(C)=O)CO[C@@H]1C[C@@H]2O` [Compound 0550], in the data set on HCT116, the IC50 is less than 10 nM. Also, the complete tumor regressions entry in data set [1] (MX-1, single oral bolus Day 1) was “six”. Besides, in data set [1] (single oral bolus Day 1), the “Toxic Deaths” value is 0, the “Complete Response” value was determined as 6, the “Partial Response” value worked out at 0 and the “Stable Disease” value is 0. Also, in data set [1], the “% Reduction (Weight)” value was 100.0%. Moreover, in the data set on blood cell populations (single oral bolus), the “% Reduction (Monocytes)” value amounted to 80.2% and the “% Reduction (Neutrophils)” value came to 95.9%. Moreover, in the data set on blood cell populations, the “Monocytes (K/µL)” value came to 0.019 K/µL, the “Neutrophils (K/µL)” value worked out at 0.037 K/µL and the “Maximum Weight Loss (Day)” value is -16.1% (5). The neutrophil reduction in the data set with blood cell populations (MX-1 study, single oral bolus, day 4) is reported as 95.9%. In the data set with blood cell populations (MX-1 study, single oral bolus, day 5), this molecule had a body weight loss of 16.1%.

For `CCC(=O)O[C@H]1C(=O)[C@@]2(C)[C@H]([C@H](OC(=O)c3ccccc3)[C@]3(O)C[C@H](OC(=O)[C@H](O)[C@@H](NC(=O)OC(C)(C)C)c4ccccc4)C(C)=C1C3(C)C)[C@]1(OC(C)=O)CO[C@@H]1C[C@@H]2O` [Compound 0611], the IC50 in the data set on HCT116 is less than 10 nM. For the same molecule, the complete tumor regressions entry in data set [1] (MX-1, single oral bolus Day 1) is “four”. For the same molecule, in data set [1] (single oral bolus Day 1), the “Toxic Deaths” value is given as 1^a, the “Complete Response” value is recorded as 4, the “Partial Response” value is recorded as 0 and the “Stable Disease” value is given as 0. Further, in data set [1], the “% Reduction (Weight)” value came out at 100.0%. Besides, in the data set with blood cell populations (single oral bolus), the “% Reduction (Monocytes)” value is given as 56.3% and the “% Reduction (Neutrophils)” value turned out to be 93.7%. In the data set on blood cell populations, the “Monocytes (K/µL)” value stood at 0.042 K/µL, the “Neutrophils (K/µL)” value is listed as 0.057 K/µL and the “Maximum Weight Loss (Day)” value was -15.0% (5).

As to `CCC(=O)O[C@H]1C(=O)[C@@]2(C)[C@H]([C@H](OC(=O)c3ccccc3)[C@]3(O)C[C@H](OC(=O)[C@H](O)[C@@H](NC(=O)c4ccccc4)c4cccs4)C(C)=C1C3(C)C)[C@]1(OC(C)=O)CO[C@@H]1C[C@@H]2O` [Compound 0687], the “Toxic Deaths” value in the data set with HCT116 carcinoma was 0; in the data set on MX-1 carcinoma, 1; in the data set with A2780 ovarian carcinoma it was 0; in the data set on SKMES lung carcinoma, 1^a. Further, in the data set with SKMES lung carcinoma (Day 60), the “Complete Response” value was 4. Besides, in the data set with SKMES lung carcinoma (Day 60), the “Partial Response” value is listed as 1. In the data set on SKMES lung carcinoma (Day 60), the “Stable Disease” value is given as 0.

As to `CCC(=O)O[C@H]1C(=O)[C@@]2(C)[C@H]([C@H](OC(=O)c3ccccc3)[C@]3(O)C[C@H](OC(=O)[C@H](O)[C@@H](NC(=O)c4ccccc4)c4ccccc4)C(C)=C1C3(C)C)[C@]1(OC(C)=O)CO[C@@H]1C[C@@H]2O` [Compound 0748], in the data set on HCT116, the IC50 is less than 10 nM. Also, the “antitumor activity” value in data set [1] (MX-1, single oral bolus Day 1) is listed as “significant survival extensions compared to vehicle control mice”. In data set [1] (single oral bolus Day 1), the “Toxic Deaths” value is 0, the “Complete Response” value turned out to be 0, the “Partial Response” value was found to be 0 and the “Stable Disease” value is given as 1. In addition, the “% Reduction (Weight)” value in data set [1] stood at 69.1%. For the same molecule, in the data set with blood cell populations (single oral bolus), the “% Reduction (Neutrophils)” value was 70.5%. In the data set with blood cell populations, the “Monocytes (K/µL)” value turned out to be 0.117 K/µL, the “Neutrophils (K/µL)” value worked out at 0.269 K/µL and the “Maximum Weight Loss (Day)” value was -4.6% (5).
